# Test results: article PMC7139479, “Insights into Interactions of Flavanones with Target Human Respiratory Syncytial Virus M2-1 Protein from STD-NMR, Fluorescence Spectroscopy, and Computational Simulations” (International Journal of Molecular Sciences, 2020)
# What was measured:
# hRSV M2-1 protein [1] = target: T1, hRSV M2-1 protein (Human respiratory syncytial virus A, UniProt P04545); experiment: Fluorescence quenching of M2-1 by flavanones (double-log plot, thermodynamic analysis); type: binding, human Respiratory Syncytial Virus (hRSV A2 strain); conditions: for Enthalpy change ΔH: Van't Hoff equation from Kb at 288 and 298 K
# T1 construct: allowing the expression of the full-length M2-1 with N-terminal fused to a His6-tag; made in house; host or cells: Escherichia coli BL21 RIL
# T1 sequence (P04545 whole entry, the tested form may be a part): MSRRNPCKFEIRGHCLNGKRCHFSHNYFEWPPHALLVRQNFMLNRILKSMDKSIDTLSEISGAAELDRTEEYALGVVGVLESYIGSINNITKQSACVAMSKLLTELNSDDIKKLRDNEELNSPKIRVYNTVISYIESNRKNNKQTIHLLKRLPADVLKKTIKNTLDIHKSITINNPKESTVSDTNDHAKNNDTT
# Procedure: The fluorescence measurements were performed on a steady-state ISS-PC1 spectrofluorimeter with temperature control (thermal bath Neslab RTE-221) and equipped with quartz cuvette of 10 mm optical path length. The excitation and emission bandwidths were set at 4 and 8 nm, respectively. The excitation wavelength was of 290 nm and the emission spectra were reported between 295 and 500 nm with 10 accumulations for each collected point. The emission spectrum was corrected for the background fluorescence from the buffer solution and for inner filter effect promoted by the flavonoids. The protein-ligand interaction measures were performed by collecting the fluorescence spectra of the protein in the absence of ligand (2 mL at 6 μM) and checking for quenching of intensities after addition of increasing concentrations of flavonoids, at 288 and 298 K (15 and 25 °C). The flavonoids’ concentrations varied from 0 to 26 μM in the final solution, with the emission of the hRSV M2-1 protein analyzed at 320 nm.
# For the data analysis, it was hypothesized that the binding sites of the flavonoids on the M2-1 protein are equal and independent. Thus, the binding constant (Kb) and the number of binding sites (n) can be calculated using the following equation [46]:(2) log(F0−F/F)=n·logKb+n·log1/([LT]−(F0−F/F0)[PT]) where F0 and F are the fluorescence intensity of the M2-1 protein in the absence and in the presence of the flavonoids, respectively. [PT] and [LT] is the total concentration of M2-1 protein and ligand (flavonoids), respectively. The values of Kb and n for the M2-1/flavonoids complex are obtained from the ordinate and slope of the linear fitting from the double-log plot log((F0 − F)/F) & log(1/([LT] − ((F0 − F)/F0)[PT])), respectively.
# In order to investigate the driving forces responsible for the binding of the flavonoids hesperetin and hesperidin to the M2-1 protein, the enthalpy change (ΔH) of this interaction was calculated from the Van’t Hoff equation:(3) lnKb2/Kb1=−ΔH/R(1/T2−1/T1) where Kb1 and Kb2 are binding constants at the absolute temperatures T1 and T2, which were 288 and 298 K (15 and 25 °C), respectively. R corresponds to the universal gas constant ([…]). The Gibbs free energy (ΔG) and entropy changes (ΔS) for the M2-1/flavonoids complex were calculated from the following equations:(4) ΔG=−R·T·lnKb (5) ΔS=ΔH−ΔG/T
# hRSV M2-1 protein [2] = target: T1, hRSV M2-1 protein; experiment: STD-NMR of M2-1/flavanone binding; set-up: species or system human Respiratory Syncytial Virus (hRSV A2 strain); conditions: 298 K, 50 µM protein, 250 µM flavonoid
# Procedure: STD-NMR experiments were performed on a Bruker Avance III 600.13 MHz equipped with a triple resonance 5 mm cryoprobe, having the pulse field gradient along the Z axis. All data were analyzed with Bruker Topspin v3.5. A total concentration of 50 μM hRSV M2-1 protein in 50 mM K2HPO4/KH2PO4 buffer (pH 7.4) containing 150 mM NaCl and 1 mM DTT at 80/20% H2O/D2O was used for all measurements. The concentration of the flavonoids used in binding experiments was of 250 μM. The on- and off-resonance frequencies were set at −0.5 and 40 ppm, providing the best profile of protein saturation and STD effect. […] A total of 16 scans with 32 loop counters were collected with 4 dummy scans. For the suppression of the protein signals, it was applied a spinlock filter of 30 ms with 0.776 W. All measurements were performed at 298 K (25 °C) and it was used a flavonoid stock solution solubilized in deuterated DMSO-d6.
# The STD effect ( ISTD ) on a given proton of the ligand was calculated according to the following equation [43, 44]:(1) ISTD=Ioff-resonance−Ion-resonance/I off-resonance where Ion-resonance and Ioff-resonance are the intensities of the ligand signals in the on- and off-resonance spectrum, respectively. The proton of the flavonoid with the highest STD effect (magnetization transfer maximum) was equal to 100% and the others protons were normalized according to this signal. The identification of ^1H NMR signals of the flavonoids at buffer solution [50 mM K2HPO4/KH2PO4 buffer (pH 7.4) at 80/20% H2O/D2O containing 150 mM NaCl and 1 mM DTT] was assisted by the resonance assignment from Chemical Book database (www.chamicalbook.com) under access code 520-33-2.
# RSV = system: RSV; set-up: method as in earlier work; conditions: against RSV; ref 28 (Kaul et al., 1985); cited from earlier work
Structure (SMILES),Gibbs free energy change ΔG (hRSV M2-1 protein [1]; 288 K),Number of binding sites n (hRSV M2-1 protein [1]; 288 K),T·ΔS (hRSV M2-1 protein [1]; 288 K),Gibbs free energy change ΔG (hRSV M2-1 protein [1]; 298 K),Number of binding sites n (hRSV M2-1 protein [1]; 298 K),T·ΔS (hRSV M2-1 protein [1]; 298 K),Enthalpy change ΔH (hRSV M2-1 protein [1]),"STD effect, 1H protons on B-ring (normalized to highest signal) (hRSV M2-1 protein [2])","STD effect, hydrogens on A-ring (normalized to highest signal) (hRSV M2-1 protein [2])",Anti-replicative activity (RSV)
"COc1ccc([C@@H]2CC(=O)c3c(O)cc(O)cc3O2)cc1O [HST, Hesperetin]",-6.5 kcal/mol,1.05,-22.5 kcal/mol,-5.7 kcal/mol,1.04,-23.3 kcal/mol,-29.0 kcal/mol,72%,100%,88%
"COc1ccc([C@@H]2CC(=O)c3c(O)cc(O[C@@H]4O[C@H](CO[C@@H]5O[C@@H](C)[C@H](O)[C@@H](O)[C@H]5O)[C@@H](O)[C@H](O)[C@H]4O)cc3O2)cc1O [HSD, Hesperidin]",-5.2 kcal/mol,0.89,3.5 kcal/mol,-5.4 kcal/mol,0.93,3.7 kcal/mol,-1.7 kcal/mol,96%,,
